Source: ChEMBL document CHEMBL1146174, “Synthesis of antimicrobial 2,9,10-trisubstituted-6-oxo-7,12-dihydro-chromeno[3,4-b]quinoxalines” (2006)

How the values were obtained:
Staphylococcus aureus [1] = experiment: Antibacterial activity against Staphylococcus aureus by measuring zone of inhibition at 100 ug/ml after 24 hrs; assay type: functional; conditions: read-out: IZ
Bacillus subtilis [2] = experiment: Antibacterial activity against Bacillus subtilis by measuring zone of inhibition at 100 ug/ml after 24 hrs; assay type: functional; conditions: read-out: IZ
Escherichia coli [3] = experiment: Antibacterial activity against Escherichia coli by measuring zone of inhibition at 100 ug/ml after 24 hrs; assay type: functional; conditions: read-out: IZ
Pseudomonas aeruginosa [4] = experiment: Antibacterial activity against Pseudomonas aeruginos by measuring zone of inhibition at 100 ug/ml after 24 hrs; assay type: functional; conditions: read-out: IZ
Aspergillus flavus [5] = experiment: Antifungal activity against Aspergillus flavus by measuring zone of inhibition at 100 ug/ml after 48 hrs; assay type: functional; conditions: read-out: IZ
Fusarium oxysporum [6] = experiment: Antifungal activity against Fusarium oxysporum by measuring zone of inhibition at 100 ug/ml after 48 hrs; assay type: functional; conditions: read-out: IZ
Aspergillus flavus [7] = experiment: Antifungal activity against Aspergillus flavus by measuring zone of inhibition at 30 ug after 48 hrs; assay type: functional, organism-based
Fusarium oxysporum [8] = experiment: Antifungal activity against Fusarium oxysporum by measuring zone of inhibition at 30 ug after 48 hrs; assay type: functional, organism-based
Staphylococcus aureus [9] = experiment: Antibacterial activity against Staphylococcus aureus by measuring zone of inhibition at 30 ug after 24 hrs; assay type: functional; conditions: read-out: IZ
Bacillus subtilis [10] = experiment: Antibacterial activity against Bacillus subtilis by measuring zone of inhibition at 30 ug after 24 hrs; assay type: functional; conditions: read-out: IZ
Escherichia coli [11] = experiment: Antibacterial activity against Escherichia coli by measuring zone of inhibition at 30 ug after 24 hrs; assay type: functional; conditions: read-out: IZ
Pseudomonas aeruginosa [12] = experiment: Antibacterial activity against Pseudomonase aeruginosa by measuring zone of inhibition at 30 ug after 24 hrs; assay type: functional; conditions: read-out: IZ

Row | Compound | zone of inhibition at 100 µg/mL (Staphylococcus aureus [1]) | zone of inhibition at 100 µg/mL (Bacillus subtilis [2]) | zone of inhibition at 100 µg/mL (Escherichia coli [3]) | zone of inhibition at 100 µg/mL (Pseudomonas aeruginosa [4]) | zone of inhibition at 100 µg/mL (Aspergillus flavus [5]) | zone of inhibition at 100 µg/mL (Fusarium oxysporum [6]) | inhibition zone (IZ) (Aspergillus flavus [7]) | inhibition zone (IZ) (Fusarium oxysporum [8]) | zone of inhibition at 30 µg/disc (Staphylococcus aureus [9]) | zone of inhibition at 30 µg/disc (Bacillus subtilis [10]) | zone of inhibition at 30 µg/disc (Escherichia coli [11]) | zone of inhibition at 30 µg/disc (Pseudomonas aeruginosa [12])
1 | O=c1oc2ccc(Br)cc2c2c1Nc1ccccc1N2 | 8 mm | 4 mm | 5 mm | 6 mm | 4 mm | 5 mm | – | – | – | – | – | –
2 | O=c1oc2ccc(F)cc2c2c1Nc1ccccc1N2 | 5 mm | 3 mm | 3 mm | 4 mm | 2 mm | 3 mm | – | – | – | – | – | –
3 | COc1ccc2oc(=O)c3c(c2c1)Nc1cc(C)c(C)cc1N3 | 11 mm | 9 mm | 9 mm | 10 mm | 6 mm | 8 mm | – | – | – | – | – | –
4 | Cc1cc2c(cc1C)Nc1c(c(=O)oc3ccccc13)N2 | 4 mm | 2 mm | 3 mm | 4 mm | 2 mm | 3 mm | – | – | – | – | – | –
5 | Cc1cc2c(cc1C)Nc1c(c(=O)oc3ccc(Cl)cc13)N2 | 7 mm | 5 mm | 8 mm | 9 mm | 3 mm | 4 mm | – | – | – | – | – | –
6 | O=c1oc2ccccc2c2c1Nc1ccccc1N2 | 2 mm | 1 mm | 2 mm | 3 mm | 2 mm | 3 mm | – | – | – | – | – | –
7 | Cc1cc2c(cc1C)Nc1c(c(=O)oc3ccc(F)cc13)N2 | 6 mm | 5 mm | 7 mm | 8 mm | 3 mm | 4 mm | – | – | – | – | – | –
8 | Cc1ccc2oc(=O)c3c(c2c1)Nc1cc(C)c(C)cc1N3 | 5 mm | 3 mm | 4 mm | 5 mm | 2 mm | 4 mm | – | – | – | – | – | –
9 | Cc1ccc2oc(=O)c3c(c2c1)Nc1ccccc1N3 | 3 mm | 2 mm | 3 mm | 4 mm | 2 mm | 2 mm | – | – | – | – | – | –
10 | Cc1cc2c(cc1C)Nc1c(c(=O)oc3ccc([N+](=O)[O-])cc13)N2 | 5 mm | 4 mm | 4 mm | 5 mm | 4 mm | 4 mm | – | – | – | – | – | –
11 | Cc1cc2c(cc1C)Nc1c(c(=O)oc3ccc(Br)cc13)N2 | 9 mm | 7 mm | 6 mm | 7 mm | 4 mm | 5 mm | – | – | – | – | – | –
12 | O=c1oc2ccc([N+](=O)[O-])cc2c2c1Nc1ccccc1N2 | 5 mm | 4 mm | 4 mm | 4 mm | 4 mm | 3 mm | – | – | – | – | – | –
13 | NYSTATIN | – | – | – | – | – | – | 9 mm | 8 mm | – | – | – | –
14 | CN[C@@H]1[C@H](O[C@H]2[C@H](O[C@H]3[C@H](O)[C@@H](O)[C@H](N=C(N)N)[C@@H](O)[C@@H]3N=C(N)N)O[C@@H](C)[C@]2(O)C=O)O[C@@H](CO)[C@H](O)[C@H]1O [STREPTOMYCIN] | – | – | – | – | – | – | – | – | 12 mm | 10 mm | 11 mm | 10 mm
15 | COc1ccc2oc(=O)c3c(c2c1)Nc1ccccc1N3 | 8 mm | 5 mm | 6 mm | 7 mm | 5 mm | 6 mm | – | – | – | – | – | –
16 | O=c1oc2ccc(Cl)cc2c2c1Nc1ccccc1N2 | 6 mm | 3 mm | 4 mm | 5 mm | 3 mm | 4 mm | – | – | – | – | – | –
